Reference: the METLIN SMRT retention time set (Domingo-Almenara et al. 2019)

Assay: gradient 5% acetonitrile 3 min, to 50% in 2 min, to 85% in 15 min, held 3 min, 100 µL/min
Conditions: column: Zorbax Extend-C18 2.1 x 50 mm; eluents: water / acetonitrile, 0.1% formic acid
Outline: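 Retention times of pure standards were taken from adduct peaks that were selected by computer and manually inspected. Over 3 months, mixtures of ~100 molecules were run by HPLC–quadrupole time-of-flight mass spectrometry in positive and negative ionization mode. The Zorbax Extend-C18 column (2.1 × 50 mm, 1.8 μm) ran at 100 μL/min in water and acetonitrile, each containing 0.1% formic acid, with 40 μL dead volume and 900 μL dwell volume.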

Compound	RP-LC retention time
COc1ccc(C(O)CN2CCN(c3cccc(C)c3)CC2)cc1 (stereo unspecified)	671 s
Cc1nn(C(C)C(=O)NCCCN(C)C2CCCCC2)c(=O)c2c(C)n(-c3ccccc3)nc12 (stereo unspecified)	675 s
Cc1noc(C2CN(C(=O)NCc3ccc(F)cc3)CC23CCOCC3)n1 (stereo unspecified)	698 s
Cc1cc2c(cc1C(=O)NCc1cccs1)OCCCO2	804 s
NC(=O)CSc1nnnn1-c1ccccc1	590 s
O=C(NCC1CN(CC2CC2)CC12CCCCC2)Nc1cc(F)ccc1F (stereo unspecified)	718 s
O=C(Nc1c(-c2ccccc2)nc2ccccn12)c1cc(Br)ccc1Cl	717 s
COc1ccc(Br)cc1C1C(C(=O)N2CCOCC2)=C(C)NC2=C1C(=O)CC(C)(C)C2 (stereo unspecified)	683 s
CC(C)(NC(=O)c1cc(Cl)c2ccccc2c1O)C(=O)O	1010 s
CCC1(C(=O)Nc2ccc(OC)cc2)CCCCC(=O)N1 (stereo unspecified)	666 s
COc1ccc2nc(C(=O)NCc3ccc(C)cc3)cn2n1	843 s
Cc1sc2ccn(C)c(=O)c2c1C(=O)NCc1ccc(OC(C)C)cc1	833 s
COC[C@@H]1CN(S(=O)(=O)c2ccc(C(C)C)cc2)C[C@H]1c1ccccn1	895 s
CC(C)c1noc(-c2ccc(-n3cnc(C(=O)NC(C)c4ccc(F)cc4)c3)nc2)n1 (stereo unspecified)	1020 s
COC(=O)c1ccc(NC(=O)C(=O)NC(C)Cc2cccs2)cc1 (stereo unspecified)	900 s
CC(C)N1CCC(CCNC(=O)C2CN(C(=O)c3ccncc3)CC23CCCCC3)CC1 (stereo unspecified)	567 s
COC1C(=O)N(C2CCN(C(=O)c3cnccn3)CC2)C12CCOCC2 (stereo unspecified)	555 s
CC(C)C(=O)Nc1cccnc1	583 s
CC1(C(=O)NC2CCCCCC2)CN(S(C)(=O)=O)CC(=O)N1Cc1ccc(Cl)cc1 (stereo unspecified)	946 s

Compound	RP-LC retention time
CCC1Oc2ccc(S(=O)(=O)N3CCC(C(=O)Nc4cc(Cl)ccc4C)CC3)cc2NC1=O (stereo unspecified)	948 s
CC1CCN(C(=O)c2nnc(-c3ccc(S(=O)(=O)N4CCCC4)cc3)o2)CC1	952 s
CC(=O)NCC(=O)N1CC(F)(F)C[C@H]1c1nc(C2CC2)no1	639 s
CCCC(=O)N1CCCC(c2nc(CNC(=O)C(C)C)cs2)C1 (stereo unspecified)	671 s
CC(C)n1cc(CN2CCCCCNC(=O)[C@@H]3CCC[C@@H]32)c2ccccc21	701 s
CN(C)c1ccc(/C=C2\Cc3ccccc3C2=O)cc1Br	1170 s
O=S(=O)(c1cc(-c2nnc(C3CCCC3)o2)co1)N1CCN(C2CCCCC2)CC1	715 s
O=C(Cn1cccc1-c1nnc(-c2ccccc2)o1)N1CCc2ccccc2C1	986 s
COc1ccc(CN2CC3(CCN(S(=O)(=O)c4cn(C)cn4)CC3)C2=O)cc1	688 s
CCN1C(=O)C(C)(C(=O)Nc2cc(C)ccc2C)Oc2cccnc21 (stereo unspecified)	744 s
O=C(c1noc2c1CCCCC2)N1CCN(c2ccccn2)CC1	632 s
Cc1ccc(CN2CC3(CCCCC3)CC2COc2ccncc2)nc1 (stereo unspecified)	615 s
O=C(c1cncnc1)N1CCC(F)(F)C(COCC2CC2)C1 (stereo unspecified)	683 s
CCSc1nnc2c(n1)OC(c1cccn1C)N(C(C)=O)c1ccccc1-2 (stereo unspecified)	788 s
COCc1noc([C@@H]2CC(F)(F)CN2C(=O)c2occc2C)n1	788 s
COc1ccc(S(=O)(=O)Nc2cccnc2Nc2ccc(O)cc2)cc1	687 s
COc1ccc(-c2nc(-c3cccc(-c4ccn[nH]4)c3)no2)cc1	1000 s
COc1ccc(-c2c(C)noc2NC(C)=O)cc1S(=O)(=O)Nc1cccc(C#N)c1	708 s
COc1ccc(OC)c(NC(=O)Cn2c(=O)n(-c3ccc(C)cc3)c(=O)c3c2cc(C)n3C)c1	908 s

Compound	RP-LC retention time
O=C(Cn1ccn2nc(-c3ccccc3)c(CO)c2c1=O)Nc1ccc2c(c1)OCCO2	759 s
Cc1cc2n(n1)CCC(=O)N2CCCC(=O)N1CCN(C(=O)c2ccco2)CC1	604 s
CCSc1nnc(NC(=O)c2nn(-c3ccc(F)cc3)cc2OC)s1	881 s
CCOC(=O)C1CCC(CNC(=O)Nc2ccc(-c3nc(-c4cc(C)ccc4C)co3)cc2)CC1 (stereo unspecified)	1260 s
Cc1oc(-c2[nH]ncc2C(=O)N(C)C)cc1S(=O)(=O)NC1CC1	614 s
CCc1ccc(S(=O)(=O)N2CCC3(CC2)NCCN=C3NCc2cccc(OC)c2)cc1	775 s
CC1(CNC(=O)c2cccc(Br)c2)CCOCC1	797 s
Cc1ccc(-c2cc(C(=O)N(C)C)n(C)c2)cc1	891 s
CCC(=O)NCc1nc2c(n1CC)CN(S(=O)(=O)c1cccc(F)c1)CC2	529 s
Cc1cnc(C2CCOCC2)n1C1CCCN(S(=O)(=O)Cc2ccccc2)C1 (stereo unspecified)	646 s
CCOc1ccc(-c2noc(Cn3c(=O)n(CCCOC)c(=O)c4ccccc43)n2)cc1	1050 s
Cc1ccc(CCNC(=O)c2ccc3c(c2)N(C)C(=O)C2CCCCN32)cc1 (stereo unspecified)	947 s
Cc1cccc(C)c1NC(=O)N(C)CC1CCOC1 (stereo unspecified)	666 s
Cc1cc(=O)n(CC(=O)Nc2cc(C)on2)c(N2CCOCC2)n1	592 s
CCOC(=O)c1c(S(=O)(=O)N2CCC(C(=O)NC3CCCCC3)CC2)c(C)n(C)c1C	828 s
Cc1ccc(NC(=O)Cn2c(C(C)C)nc3c(c2=O)CN(Cc2ccccc2)CC3)cc1C	738 s
Cc1nn(-c2ccccc2)c(C)c1S(=O)(=O)N1CCC(C(=O)NCc2ccccc2Cl)CC1	963 s
CCOc1ccc(C2Cn3nnc(-c4nc(-c5cccc(Br)c5)no4)c3CO2)cc1 (stereo unspecified)	1310 s
CCCNC(=O)C1CCN(c2ccc(SCC(=O)Nc3cccc(CC)c3)nn2)CC1	674 s

Other lines, results leading:

RP-LC retention time	Compound
702 s	CCN1C(=O)c2cccnc2Sc2cc(CNC(=O)c3ccccc3F)ccc21
646 s	CCc1cc(C(=O)N2CCN(CC)CC2)nc2cc(-c3cccs3)nn12
730 s	CCN1C(=O)c2cccnc2Sc2cc(C(=O)N3CCCCC3)ccc21
699 s	CCC(=O)N1CCc2cc(N3CC(C(=O)NCc4ccccc4)CC3=O)ccc21 (stereo unspecified)
872 s	Cc1cc(C)n(-c2ccnc(N3CCC(C(=O)NC(C)c4ccc(F)cc4)CC3)n2)n1 (stereo unspecified)
1230 s	O=C(Nc1cccc(Cl)c1)c1nn2c(C(F)(F)F)cc(-c3ccco3)nc2c1Cl
765 s	O=C(Cc1ccccc1)N1CCN(c2cc(-c3cccs3)[nH]n2)CC1
929 s	O=C(COc1ccccc1)OCc1nc2ccccc2s1
734 s	COc1cccc(CNC(=O)C2CCCN(c3ncnc4c3oc3ccccc34)C2)c1 (stereo unspecified)
1230 s	Cc1cccc(Sc2nccnc2N2CCCC(C(=O)NC3CCCCCC3)C2)c1 (stereo unspecified)
765 s	O=C(Nc1cc(-c2ccccn2)no1)C1CCCC1
789 s	COc1ccccc1C(=O)NC1CCN(c2ccccc2)C1=O (stereo unspecified)
1120 s	O=C(c1ccco1)N1CC(Oc2cccc(-c3nc(-c4ccccc4)no3)c2)C1
1250 s	Cc1cc(NC(=O)c2ccccc2C(F)(F)F)n(-c2nc(-c3cccs3)cs2)n1
666 s	Cc1cc(=O)n(CC(=O)Nc2ccc(Br)cc2)c(N2CCCC2)n1
916 s	Cc1cc(F)ccc1NC(=O)Cn1cccc1-c1nnc(C2CCC2)o1
585 s	O=C(NCc1cccnc1)c1ccc2c(c1)NC(=O)C1CCCCN21 (stereo unspecified)

RP-LC retention time	Compound
692 s	O=C(Nc1ccc(OC(F)(F)F)cc1)C1CCCN(C(=O)c2cc(-c3ccncc3)n[nH]2)C1 (stereo unspecified)
908 s	Cc1ccc(Cn2c(=O)c(N3CCN(C(=O)NCC4CCCO4)CC3)nc3ccccc32)cc1 (stereo unspecified)
751 s	CCn1c(=O)sc2cc(S(=O)(=O)N3CCC(C(=O)Nc4ccccn4)CC3)ccc21
659 s	CCCn1cnc2cc(CNC(=O)C3CC(=O)N(c4cccc(Cl)c4)C3)ccc21 (stereo unspecified)
734 s	COc1ncccc1C(=O)NCCCn1nc(-c2ccc(F)cc2)ccc1=O
958 s	O=C(Nc1cccc(C(F)(F)F)c1)C1CCCN(c2ncnc3c2nc2n3CCCCC2)C1 (stereo unspecified)
737 s	Cc1ccc2c(Nc3ccc(C(C)C)cc3)c(C(=O)N3CCCCC3C)cnc2n1 (stereo unspecified)
709 s	COc1cccc(N2CC(NC(=O)c3ccccc3C(F)(F)F)CC2=O)c1 (stereo unspecified)
776 s	O=C1NC2(CCN(C(=O)c3ccccc3Cl)CC2)N=C1c1cccc(F)c1
604 s	CCc1nncn1C1CCN(C(=O)c2cc(F)ccc2F)CC1
917 s	Cc1ccc(F)c(-n2nnc(C(=O)O)c2-c2ccccn2)c1
598 s	O=C(Nc1ccccc1)N1CCc2[nH]cnc2C1c1ccccn1 (stereo unspecified)
650 s	NC(=O)Nc1cc(-c2cccc(F)c2)sc1C(=O)N[C@H]1CCCNC1
797 s	Cc1c(C(=O)N2CCOCC2)cnn1-c1cc(-c2nc(C3CC3)no2)ccn1
957 s	O=C(c1cccs1)N1CCCC(c2ccnc(Nc3cccc(F)c3)n2)C1 (stereo unspecified)
548 s	O=C(NCc1cccs1)C(=O)Nc1ccncc1
834 s	CC(C)c1c(C2CCN(C(=O)c3cccc(Br)c3)CC2)noc1N
